Our source for the Change and Relative potency values is ChEMBL document CHEMBL1123649, “Congener derivatives and conjugates of histamine: synthesis and tissue and receptor selectivity of the derivatives” (J Med Chem, 1987).

SMILES strings stand for the structures.

The target in assay [1] is Histamine H1 receptor (Homo sapiens) (UniProt P35367). Put plainly: Effect on peripheral vasculature of the rabbit as percentage change in contractility. The class given is functional, tissue-based. The settings on record: Oryctolagus cuniculus, target entry is the homologue from another species.
Histamine H1 receptor (Homo sapiens), sequence (P35367 whole entry): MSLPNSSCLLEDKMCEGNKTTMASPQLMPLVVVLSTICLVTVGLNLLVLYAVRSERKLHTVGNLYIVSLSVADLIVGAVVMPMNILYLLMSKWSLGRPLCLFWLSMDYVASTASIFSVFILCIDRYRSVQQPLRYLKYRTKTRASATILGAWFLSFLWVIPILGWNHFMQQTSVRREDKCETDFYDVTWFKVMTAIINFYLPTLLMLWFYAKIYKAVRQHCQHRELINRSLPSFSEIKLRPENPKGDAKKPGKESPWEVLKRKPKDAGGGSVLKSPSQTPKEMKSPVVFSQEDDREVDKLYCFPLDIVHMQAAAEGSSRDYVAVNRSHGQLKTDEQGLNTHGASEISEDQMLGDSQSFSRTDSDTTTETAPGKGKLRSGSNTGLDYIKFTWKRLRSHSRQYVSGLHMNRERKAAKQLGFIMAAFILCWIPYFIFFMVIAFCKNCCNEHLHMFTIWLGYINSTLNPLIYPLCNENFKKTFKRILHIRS
For assay [2], the target named is Histamine H2 receptor (Cavia porcellus) (UniProt P47747). Put plainly: Relative potency in guinea pig myocardium (GPM) by adenylate cyclase stimulation assay, H2 receptor response. The assay is classed as functional, tissue-based.
Histamine H2 receptor (Cavia porcellus), sequence (P47747 whole entry): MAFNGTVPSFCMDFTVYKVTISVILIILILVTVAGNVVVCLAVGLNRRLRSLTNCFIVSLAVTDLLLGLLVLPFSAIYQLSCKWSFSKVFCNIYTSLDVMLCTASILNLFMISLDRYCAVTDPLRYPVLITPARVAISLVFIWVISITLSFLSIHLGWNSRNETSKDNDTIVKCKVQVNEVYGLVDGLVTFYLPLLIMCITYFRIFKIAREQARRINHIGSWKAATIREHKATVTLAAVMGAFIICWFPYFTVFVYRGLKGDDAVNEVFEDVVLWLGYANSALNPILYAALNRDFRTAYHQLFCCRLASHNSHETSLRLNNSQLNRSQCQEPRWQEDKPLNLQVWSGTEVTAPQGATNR
Assay [3] has as its target Histamine H2 receptor (Mus musculus) (UniProt P97292). Put plainly: Relative potency by cAMP assay in natural suppressor cells. The class given is functional, cell-based. In general terms: Cyclic AMP is a second messenger, typically raised through Gs and lowered through Gi signalling.

Histamine H2 receptor (Mus musculus), sequence (P97292 whole entry): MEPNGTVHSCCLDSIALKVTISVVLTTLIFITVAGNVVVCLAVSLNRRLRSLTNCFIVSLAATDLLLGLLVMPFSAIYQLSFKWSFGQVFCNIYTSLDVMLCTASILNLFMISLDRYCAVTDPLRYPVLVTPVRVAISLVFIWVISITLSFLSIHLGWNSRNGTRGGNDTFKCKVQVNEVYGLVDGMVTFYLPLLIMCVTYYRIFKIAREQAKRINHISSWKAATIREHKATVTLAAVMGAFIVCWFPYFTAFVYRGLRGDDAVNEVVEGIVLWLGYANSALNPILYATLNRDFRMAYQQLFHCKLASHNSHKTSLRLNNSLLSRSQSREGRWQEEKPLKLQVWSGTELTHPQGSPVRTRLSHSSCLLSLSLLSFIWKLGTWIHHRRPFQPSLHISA

In turn, `Cc1ccc(NC(=O)CCCC(=O)NCCc2c[nH]cn2)cc1` yielded a Change in assay [1] of 0%. Also, the Relative potency in assay [2] was determined as 0; in assay [3] it was 4.4.

In assay [1], `CC(CCC(=O)Nc1ccc(C(F)(F)F)cc1)NCCc1c[nH]cn1` (stereo not given) yielded a Change of 0%. The molecule further displayed a Relative potency in assay [3] of 0.

`Cc1ccc(NC(=O)CCCCNCCc2c[nH]cn2)cc1`: the Change in assay [1] amounted to 0%. Also, the values for the Relative potency in assay [2] and in assay [3] were 0.09 and 2, respectively.

In assay [1], `CC(CCCC(=O)Nc1ccc(C(F)(F)F)cc1)NCCc1c[nH]cn1` (stereo not given) showed a Change of 0%. Also, the Relative potency in assay [2] and in assay [3] was 0 throughout.

As to `Cc1ccc(NC(=O)CC(C)NCCc2c[nH]cn2)cc1` (stereo not given), the Change in assay [1] came out at 0%. For the same molecule, the Relative potency in assay [3] was 0.

`Cc1ccc(NC(=O)CCC(C)NCCc2c[nH]cn2)cc1` (stereo not given): the Change in assay [1] was found to be 0%. The Relative potency in assay [3] came out at 0.

Turning to `CC(CC(=O)Nc1ccc(C(F)(F)F)cc1)NCCc1c[nH]cn1` (stereo not given), the Change in assay [1] was found to be 0%. Further, the Relative potency in assay [3] stood at 0.

Molecule `CCCCCC(=O)NCCc1c[nH]cn1` registered a Change in assay [1] of 0%. Moreover, the Relative potency in assay [2] and in assay [3] was 0 throughout.

Regarding `Cc1ccc(NC(=O)CCCCCC(C)NCCc2c[nH]cn2)cc1` (stereo not given), the Change in assay [1] was 0%. In addition, the Relative potency stood at 0.02 in assay [2] and 2 in assay [3].

Molecule `CCCCCCNCCc1c[nH]cn1` came in with a Change in assay [1] of 93%. The Relative potency is 0 in assay [2] and 5 in assay [3].

Consider `CNC(=O)CNC(=O)C(Cc1ccccc1)N(NC(=O)CCC(C)NCCc1c[nH]cn1)C(=O)OC(C)(C)C` (stereo not given), for which the Change in assay [1] was 0%. Further, the Relative potency in assay [2] and in assay [3] was 0 each time.

The molecule `CNC(=O)CNC(=O)C(Cc1ccccc1)N(NC(=O)CCCC(C)NCCc1c[nH]cn1)C(=O)OC(C)(C)C` (stereo not given) displayed a Change in assay [1] of 0%. In addition, the Relative potency in assay [2] and in assay [3] was 0 throughout.

`Cc1ccc(NC(=O)CCCC(C)NCCc2c[nH]cn2)cc1` (stereo not given) yielded a Change in assay [1] of 90%. Moreover, the Relative potency is 0.01 in assay [2] and 4000 in assay [3].

Regarding `CCCCCC(C)NCCc1c[nH]cn1` (stereo not given), the Change in assay [1] is 0%. Also, the Relative potency in assay [2] and in assay [3] was 0 in each case.

Molecule `CC(CCCCC(=O)Nc1ccccc1C(F)(F)F)NCCc1c[nH]cn1` (stereo not given) yielded a Change in assay [1] of 0%. Also, the Relative potency in assay [2] and in assay [3] was 0 each time.

Take `CNC(=O)CNC(=O)C(Cc1ccccc1)N(NC(=O)CCCCC(C)NCCc1c[nH]cn1)C(=O)OC(C)(C)C` (stereo not given): the Change in assay [1] worked out at 0%. Moreover, the Relative potency in assay [2] stood at 0.0007; in assay [3], 0.

As for `Cc1ccc(NC(=O)CCCCC(C)NCCc2c[nH]cn2)cc1` (stereo not given), the Change in assay [1] is 0%. The Relative potency in assay [2] came to 0.07; in assay [3], 3.

`CCCCNC(=O)CCCCC(C)NCCc1c[nH]cn1` (stereo not given) showed a Change in assay [1] of 0%. Besides, the figures for the Relative potency in assay [2] and in assay [3] were 0.01 and 0, respectively.

In the case of `NCCc1c[nH]cn1`, the Change in assay [1] is 284%. Besides, the Relative potency in assay [2] and in assay [3] was 1 in each case.

For the molecule `CC(CCCCC(=O)Nc1ccc(C(F)(F)F)cc1)NCCc1c[nH]cn1` (stereo not given), the results for the Relative potency in assay [2] and in assay [3] were 0 and 40000, respectively.
